Data on two compounds can be found in article PMC5761213 (Journal of Pharmaceutical Analysis, 2014).

Where two headings read alike, the source gives them in different places.

The target in one data set is T1, CYP2C8 (Homo sapiens, UniProt P10632).
T1 sequence (P10632 1-490): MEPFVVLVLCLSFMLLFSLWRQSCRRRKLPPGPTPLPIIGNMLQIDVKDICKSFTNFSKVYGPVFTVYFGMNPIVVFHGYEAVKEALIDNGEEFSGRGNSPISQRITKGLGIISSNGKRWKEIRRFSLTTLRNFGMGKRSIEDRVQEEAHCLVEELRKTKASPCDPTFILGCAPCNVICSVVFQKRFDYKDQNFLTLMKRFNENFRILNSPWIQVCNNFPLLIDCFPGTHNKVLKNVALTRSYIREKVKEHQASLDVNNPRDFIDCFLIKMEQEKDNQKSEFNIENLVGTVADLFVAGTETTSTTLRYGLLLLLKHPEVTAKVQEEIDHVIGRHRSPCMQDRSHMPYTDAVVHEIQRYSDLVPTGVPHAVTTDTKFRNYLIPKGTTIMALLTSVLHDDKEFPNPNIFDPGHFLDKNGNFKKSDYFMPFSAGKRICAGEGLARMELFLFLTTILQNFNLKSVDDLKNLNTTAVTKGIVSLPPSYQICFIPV
The data set is described as follows: Effect of DMSO on CYP activity in human liver microsomes. Type of data set: in vitro ADME. In general terms: Liver microsomes are vesicles of endoplasmic reticulum, rich in cytochrome P450 enzymes.

The target in the next data set is T2, CYP1A2 (Homo sapiens, UniProt P05177).
T2 sequence (P05177 1-516): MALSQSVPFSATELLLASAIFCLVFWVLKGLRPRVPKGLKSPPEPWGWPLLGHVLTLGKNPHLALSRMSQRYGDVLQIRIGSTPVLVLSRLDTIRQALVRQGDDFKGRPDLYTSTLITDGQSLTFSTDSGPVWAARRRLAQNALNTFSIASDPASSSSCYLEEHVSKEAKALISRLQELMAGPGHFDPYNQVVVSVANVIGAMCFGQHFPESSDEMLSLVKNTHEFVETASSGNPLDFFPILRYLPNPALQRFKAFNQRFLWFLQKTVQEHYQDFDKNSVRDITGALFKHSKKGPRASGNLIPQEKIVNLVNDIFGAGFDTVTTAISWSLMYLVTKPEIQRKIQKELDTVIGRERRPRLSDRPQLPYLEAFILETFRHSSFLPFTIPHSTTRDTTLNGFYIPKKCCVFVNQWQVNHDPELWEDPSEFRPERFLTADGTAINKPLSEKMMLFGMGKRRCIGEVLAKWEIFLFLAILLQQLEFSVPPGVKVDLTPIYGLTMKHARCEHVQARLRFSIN
The description is as above. Type of data set: in vitro ADME.

The target in another data set is CYP3A4 (Homo sapiens, UniProt P08684). The data set is described as above. Type of data set: in vitro ADME. The conditions noted are these: for activity loss: percent decrease of metabolite formation.
Another data set has as its target CYP2D6 (Homo sapiens, UniProt P10635). The description is as above. Type of data set: in vitro ADME.
Data set [1] concerns the target T3, CYP2C19 (Homo sapiens, UniProt P33261). The description is as above. Type of data set: in vitro ADME. The note with it: for activity loss: percent decrease of metabolite formation.
Data set [2] concerns the target T3, CYP2C19. The conditions noted are these: literature value, cited from earlier work.
Data set [3] concerns the target T3, CYP2C19. The data set is described as follows: CYP inhibition assay in human liver microsomes, S-mephenytoin probe. Type of data set: in vitro ADME. The note with it: IC50 calculated without SC, Single, pooled human liver microsomes, analyte-to-IS peak area ratio.
[4] abbreviates: 0.5% DMSO, concentration set for the cocktail assay.

T3 sequence (P33261 whole entry): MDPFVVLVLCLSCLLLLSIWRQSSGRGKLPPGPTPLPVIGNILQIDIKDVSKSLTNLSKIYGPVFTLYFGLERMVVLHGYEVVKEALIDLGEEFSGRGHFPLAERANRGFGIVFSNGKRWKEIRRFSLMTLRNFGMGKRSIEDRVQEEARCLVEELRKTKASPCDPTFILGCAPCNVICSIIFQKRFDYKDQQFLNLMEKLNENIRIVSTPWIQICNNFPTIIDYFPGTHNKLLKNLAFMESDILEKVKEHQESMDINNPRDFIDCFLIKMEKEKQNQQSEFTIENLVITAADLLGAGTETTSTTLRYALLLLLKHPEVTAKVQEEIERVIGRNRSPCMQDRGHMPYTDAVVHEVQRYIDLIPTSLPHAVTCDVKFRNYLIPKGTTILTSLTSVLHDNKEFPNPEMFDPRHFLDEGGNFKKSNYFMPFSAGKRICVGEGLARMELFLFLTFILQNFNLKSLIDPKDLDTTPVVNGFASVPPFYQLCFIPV
Sequence of CYP2D6 (P10635 whole entry): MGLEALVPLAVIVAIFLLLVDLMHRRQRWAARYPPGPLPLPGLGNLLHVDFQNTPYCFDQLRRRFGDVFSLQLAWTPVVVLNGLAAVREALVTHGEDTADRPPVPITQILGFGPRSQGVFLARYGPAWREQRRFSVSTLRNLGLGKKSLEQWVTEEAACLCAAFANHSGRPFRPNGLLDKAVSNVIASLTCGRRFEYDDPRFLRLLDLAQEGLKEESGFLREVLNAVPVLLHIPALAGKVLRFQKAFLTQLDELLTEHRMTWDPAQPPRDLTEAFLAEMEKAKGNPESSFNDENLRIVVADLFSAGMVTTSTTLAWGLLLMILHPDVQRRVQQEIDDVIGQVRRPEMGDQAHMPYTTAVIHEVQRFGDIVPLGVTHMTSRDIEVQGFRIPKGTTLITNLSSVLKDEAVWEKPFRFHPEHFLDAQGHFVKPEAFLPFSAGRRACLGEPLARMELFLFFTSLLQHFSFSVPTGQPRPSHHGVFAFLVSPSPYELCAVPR
Sequence of CYP3A4 (P08684 whole entry): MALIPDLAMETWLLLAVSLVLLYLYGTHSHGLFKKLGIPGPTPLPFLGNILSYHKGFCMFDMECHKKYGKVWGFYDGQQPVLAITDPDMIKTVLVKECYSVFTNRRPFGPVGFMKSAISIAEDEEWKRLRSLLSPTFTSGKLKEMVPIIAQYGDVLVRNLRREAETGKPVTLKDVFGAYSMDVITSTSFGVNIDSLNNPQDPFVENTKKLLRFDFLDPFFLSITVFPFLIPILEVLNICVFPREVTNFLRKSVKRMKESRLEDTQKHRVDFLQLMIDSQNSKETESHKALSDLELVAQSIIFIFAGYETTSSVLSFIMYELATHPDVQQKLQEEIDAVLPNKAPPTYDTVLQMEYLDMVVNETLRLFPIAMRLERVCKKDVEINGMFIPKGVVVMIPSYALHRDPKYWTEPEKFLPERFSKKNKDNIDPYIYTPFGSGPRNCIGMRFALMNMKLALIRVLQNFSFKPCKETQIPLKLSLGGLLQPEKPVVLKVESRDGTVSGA

As to `C[S+](C)[O-]` [DMSO], the “reduction of metabolite formation” value on CYP2C8 (0.1% DMSO), at CYP1A2 (0.1% DMSO), at CYP3A4 (0.1% DMSO), at CYP2D6 (0.1% DMSO) and on CYP2C19 [1] (0.1% DMSO) was “no significant reduction” throughout. Also, the “CYP activity reduced by” value at CYP2C8 (setting [4]) was found to be 11%; on CYP1A2 (setting [4]), 8%; at CYP2D6 (setting [4]) it was 12%; at CYP2C19 [1] (setting [4]), 44%. The “effect of DMSO on CYP activity” value on CYP2C8 (DMSO up to 1%) and on CYP1A2 (DMSO up to 1%) was “not significantly affected” in each case. Moreover, the activity loss at CYP3A4 (0.5% DMSO (v/v)) was found to be 24.4%; on CYP3A4 (1% DMSO (v/v)) it was 52.7%; at CYP2D6 (1% DMSO (v/v), percent decrease of metabolite formation) it was 27.8%; at CYP2C19 [1] (0.5% DMSO (v/v)), 44.8%; on CYP2C19 [1] (1% DMSO (v/v)), 55.0%.
For orientation: IC50 means the midpoint of a concentration-inhibition curve. In general, Ki refers to a measure of affinity in units of concentration, obtained from inhibition or displacement. For the compound `C=C(C)[C@@H]1CCC2=CC(=O)C[C@@H](C)[C@]2(C)C1` [Nootkatone], the half-maximal inhibitory concentration (IC50) at CYP2C19 [2] (read-out: reported IC50) was 9.56 µM; on CYP2C19 [3] it was 7.19 µM. Further, the Ki on CYP2C19 [2] (read-out: reported Ki) is 0.5 µM.
